Columns and labels:
[1] = system: Renilla luciferase driven by EMCV IRES in OR6c cells; assay: Control transfection: EMCV IRES-driven Renilla luciferase plasmid pEMCV-RL in cured OR6c cells; type: cell-based, human; settings: cured OR6c cells transfected with pEMCV-RL, HU added 24 h after transfection, 72 h culture
Protocol: In accordance with Patent Literature 1, a plasmid encoding Renilla luciferase driven by the internal ribosome entry site (IRES) of encephalomyocarditis virus (EMCV) was transfected into OR6c cells which were OR6 cells cured by IFN, with FuGENE6 reagent (produced by Roche Diagnostics), and 24 hours after transfection, the cells were treated with various concentrations of HU and cultured for 72 hours.

[2] = system: HCV RNA (virus level); assay: Clinical test in patients with intractable hepatitis C, serum HCV RNA by real-time PCR (TaqMan); type: in vivo, human; settings: oral 1500 mg/day for 4 weeks
Protocol: Serum HCV RNA level (log IU/ml) was measured every week from before the administration to the end of the therapy by the real-time detection PCR method using TaqMan (trade name) probe.

[3] = system: genome-length HCV RNA replication in OR6 cells; assay: Genome-length HCV replication assay in OR6 cells (Renilla luciferase reporter); type: cell-based, Hepatitis C virus (HCV); settings: luciferase activity
Source text: Briefly, the cells described in Patent Literature 1 used for the screening were as follows: That is, the cells were those obtained by introducing, into Oc cells (FERM P-20517) originated from a human hepatocarcinoma cell line HuH-7, a plasmid containing full length of HCV genome, luciferase gene as a reporter gene and neomycin-resistant gene (neomycin phosphotransferase gene) as a selection marker gene. More specifically, the cells (OR6 cells) were the Oc cells (FERM P-20517) originated from a human hepatocarcinoma cell line HuH-7, into which a plasmid having an RNA containing, from the 5′-end, internal ribosome entry site (IRES) sequence of HCV, luciferase gene, neomycin phosphotransferase gene, IRES sequence originated from encephalomyocarditis virus (EMCV), HCV open reading frame sequence and HCV 3′ untranslated sequence. After culturing the OR6 cells in a culture medium containing a test compound whose anti-viral activity against HCV (that is, therapeutic effect against hepatitis C) is to be examined, the luciferase activity of the cells is measured. […] Therefore, the lower the luciferase activity measured, the higher the anti-HCV activity. In Patent Literature 1, it was experimentally confirmed that correlation between the luciferase activity measured and the amount of HCV RNA is very high, so that it has been confirmed that this system has a high reliability. […]

[4] = system: OR6 cells; assay: Cell viability, viable cell count after trypan blue staining; type: cell-based, human; settings: 72 h, HU at each concentration up to 100 μmol/L
Protocol: In order to examine the cytotoxic effects of HU on OR6 cells, the cells were seeded onto dishes of diameter 95 mm at a density of 400,000 cells per dish, and cultured for 72 hours after adding HU to a concentration of 0, 50, 100, and 150 μmol/L, respectively. The number of viable cells was then counted by a hematocytometer after staining with trypan blue dye.

[5] = serum HCV RNA (log IU/ml), 12 patients

| Substance | inhibition of Renilla fluorescence (control plasmid) [1] | patients with decrease in the virus level (HCV RNA) ([2]; 9 out of 12 patients, intractable hepatitis C, serogroup 1, high virus level) | decrease in the virus level, average [2, 5] | decrease in the virus level, maximum [2, 5] | IC50 ([3]; 72-h treatment, HU up to 150 μmol/L, read-out: 50% replication inhibition concentration) | number of viable cells compared to untreated cells [4] | 50% inhibition concentration ([3]; 72 h treatment) |
| --- | --- | --- | --- | --- | --- | --- | --- |
| hydroxyurea [HU] | did not inhibit | 75% | 0.22 Log | 0.37 Log | 60 µM | no significant difference | – |
| interferon α | – | – | – | – | – | – | 1.2 IU/mL |

From patent US20110200554A1, “THERAPEUTIC AGENT FOR HEPATITIS C” (priority 2008, published 2011)
